Entries after “also recorded” stand apart in the source; their conditions may differ.
Columns and labels:
Assay type in all cases: biochemical, Photinus pyralis
[1] = Stability of CNBLuc03-02 luciferase activity in the presence of chloroform; conditions: 5% ethanol, 33 mM DTT, 10 μl cell lysates; for inhibition of luciferase activity by 0.8% CHCl3: 0.8% chloroform; for original activity maintained: FIG. 1, different concentrations of chloroform
Description: (§1) The stability of CNBLuc03-02 luciferase (SEQ ID NO: 2) in the presence of a range of potential inhibitors was assayed. The basic assay contained 40 mM Tris-Acetate at pH 7.8, 1 mM MgSO4, 0.1 mM EDTA (ethylenediaminetetraacetic acid), 500 μM D-Luciferin and 500 μM ATP. Ethanol, DTT (dithiothreitol) and potential inhibitors were included at the concentrations stated.

[2] = Stability of CNBLuc03-02 luciferase activity in the presence of HPV solvents; conditions: FIG. 2, 33 mM DTT, 10% ethanol; for inhibition of luciferase activity by toluene: 0.5% toluene
Description: as §1
Toluene inhibited CNBLuc03-02 luciferase (SEQ ID NO: 2) activity by approximately 40% and wild type luciferase activity by approximately 80%.

[3] = Stability of CNBLuc03-06 luciferase activity in the presence of HPV chemicals; conditions: FIG. 3, 1 mM DTT, 2.5% ethanol
Description: as §1, with “CNBLuc03-06” for “CNBLuc03-02”, “4), both in purified form and in cell lysates,” for “2)”
This effect was confirmed by repeated experiments. With 20 ng purified CNBLuc03-06 luciferase (SEQ ID NO: 4) and in the presence of 2.5% ethanol, 1 mM DTT and 86 mM chloroform an activation of approximately 50% was measured, compared with the absence of chloroform.
The capacity of a variety HPV chemicals to inhibit or activate both wild type luciferase and CNBLuc03-06 luciferase (SEQ ID NO: 4) activity compared to controls without HPV chemicals was tested. Higher concentrations of chloroform (172 mM), methylene chloride (318 mM) or toluene (2.7 mM) were used. The basic assay contained 20ng of purified CNBLuc03-06, 1 mM DTT and 2.5% ethanol. CNBLuc03-06 luciferase (SEQ ID NO: 4) was exposed to each chemical for less than 5 minutes before measuring the light output.

[4] = Luciferase activity in the presence of nonionic detergent Triton X-100; conditions: FIG. 4; Triton X-100 up to 5%, 20 ng purified luciferase, 0% ethanol, 33 mM DTT
Description: as §1, with “CNBLuc03-06” for “CNBLuc03-02”, “4), both in purified form and in cell lysates,” for “2)”
(§2) The stability of CNBLuc03-06 luciferase (SEQ ID NO: 4) in the presence of Triton X-100 and SDS was determined using 20 ng of purified luciferase per sample using the basic assay conditions and in the presence of 0% ethanol and 33 mM DTT. The effect of detergents on wild type luciferase was determined previously by W. J. Simpson and J. R. M. Hammond (W. J. Simpson and J. R. M. Hammond, (1991) Journal of Bioluminescence & Chemiluminescence, 6. 97–106, incorporated herein by reference). They reported the anionic detergents inhibit luciferase activity, and cationic detergents and nonionic detergents increase the reaction rate when the concentration of detergent exceeds critical micelle concentration (CMC) value but only up to certain concentrations.

[5] = Luciferase activity in the presence of anionic detergent SDS; conditions: FIG. 5; 20 ng purified luciferase, 0% ethanol, 33 mM DTT
Description: as §1, with “CNBLuc03-06” for “CNBLuc03-02”, “4), both in purified form and in cell lysates,” for “2)”
as §2
SDS was used for testing the effect of anionic detergents.

[6] = Luciferase activity at different pHs; conditions: up to pH 11
Description: 20 ng of enzyme was used for each reaction. The pH was maintained at 7.8 by 40 mM Tris-acetate buffer and 33 mM DTT was added to each reaction. Both substrates, MGATP and D-Luciferin were saturated at 1 mM and 500 μM respectively. The values were normalized against the highest RLU (relative light units) at each pH optimum for comparison purpose. CNBLuc03-06 luciferase (SEQ ID NO: 4) has optimum pH of 9, but the high enough activity is retained at lower pHs in which enables us to use this mutant luciferase in case a wide range of pH is required for the assay (between 8–11).

[7] = Specific activity of luciferase in the absence of DTT; conditions: 0 mM DTT, pH 7.8, 1 mM ATP, 500 μM D-Luciferin, three replicates
Description: Dithiothreitol (DTT) is an enzyme stabilizing agent used to reduce disulfide bonds (break the bonds) that are not normally formed under physiological conditions. Both purified wild type luciferase and CNBLuc03-06 luciferase (SEQ ID NO: 4) were diluted to 2 μg/ml in 40 mM Tris Acetate buffer at pH 7.8. The assay contained 40 mM Tris-Acetate at pH 7.8, 1 mM MgSO4, 0.1 mM EDTA, 500 μM D-Luciferin, 1 mM ATP, and 0 mM DTT. The light output was measured over time and three replicate measurements were made for each luciferase. The average value of the highest light output reading obtained over time was used to determine specific activity of each enzyme.

[8] = Quantitative in vitro screening of mutant luciferases with chloroform; conditions: cell lysate supernatant
Description: Selected colonies from secondary screening were inoculated and grown in 5 ml LB broth containing 100 μg/ml ampicillin at 30° C. overnight. When the OD660 reached approximately 1, bacterial cells were harvested from 1.5 ml of culture by centrifugation for 3 min at 12,000 rpm (Eppendorf centrifuge model 5415D). Harvested cells were resuspended in 1 ml of 40 mM Tris-Acetate buffer, pH 7.8, and sonicated for 10 seconds using a Branson Sonifer 450, Duty cycle-40 and output control-4. The activity of each luciferase sample, prepared using 10 μl of supernatant from a subsequent centrifugation of sonicated bacterial cell culture, was tested in 200 μl total reaction volume by a Luminometer (Perkin Elmer, model Victor II). Each assay contained 40 mM Tris-Acetate, 1 mM MgSO4, 0.1 mM EDTA (ethylenediaminetetraacetic acid), 33 mM DTT (dithiothreitol), 500 μM D-Luciferin, 10% Ethanol and 500 μM ATP at pH 7.8. Some screening assays also contained 68.8 mM chloroform (0.8% vol.).
Different mutant luciferases were compared quantitatively by determining the percentage (%) inhibition of luciferase activity in the presence of chloroform relative to a control without chloroform. The specific activities of chloroform-tolerant mutants were generally lower as compared to wild type. […] The nucleotide sequence of CNBLuc03-02 is SEQ ID No: 1. The polypeptide sequence of the product of SEQ ID No: 1 is SEQ ID No: 2.

Molecule | inhibition of luciferase activity by 0.8% CHCl3 [1] | original activity maintained [1] | inhibition of luciferase activity by toluene ([2]; 10 μl cell lysate) | inhibition compared to controls, chloroform ([3]; chloroform 172 mM, exposure less than 5 minutes) | inhibition compared to controls, methylene chloride ([3]; methylene chloride 318 mM) | inhibition compared to controls, toluene ([3]; toluene 2.7 mM) | effect of Triton X-100 on luciferase activity [4] | effect of SDS on luciferase activity [5] | activity at elevated pH [6] | specific activity (highest light output) [7] | specific activity compared to wild type ([8]; screening assay) | inhibition of luciferase activity in the presence of chloroform relative to a control without chloroform ([8]; screening, 68.8 mM chloroform (0.8% vol.), 10% ethanol, 33 mM DTT) | inhibition of luciferase activity by HPV solvents other than toluene ([2]; 0.5% of CH2Cl2, hexane, xylene or heptane, 10 μl cell lysate) | inhibition by HPV solvents compared with wild type ([2]; 0.5% of each solvent (CH2Cl2, toluene, hexane, xylene, heptane))
wild type luciferase: amino acid sequence of luciferase of the species Photinus pyralis (SEQ ID NO: 6) [reference compound] | over 80% | about 20% | approximately 80% | about 70% | about 70% | about 20% | activated by the nonionic detergent, Triton X-100, up to final concentration of 1.25%; also recorded: increased until 1.25% then it started decreasing | inhibited luciferase activity significantly | completely inhibit | 2.9±1.6×10^9 RLU/mg enzyme/sec |  |  |  | 
CNBLuc03-02: modified Photinus pyralis luciferase: serine replaced by threonine at amino acid 239 and alanine replaced by threonine at amino acid 532 (protein, listed as Photinus pyralis) MEDAKNIKKGPAPFYPLEDGTAGEQLHKAMKRYALVPGTIAFTDAHIEVNITYAEYFEMSVRLAEAMKRYGLNTNHRIVVCSENSLQFFMPVLGALFIGVAVAPANDIYNERELLNSMNISQPTVVFVSKKGLQKILNVQKKLPIIQKIIIMDSKTDYQGFQSMYTFVTSHLPPGFNEYDFVPESFDRDKTIALIMNSSGSTGLPKGVALPHRTACVRFSHARDPIFGNQIIPDTAILTVVPFHHGFGMFTTLGYLICGFAVVLMYRFEEELFLRSLQDYKIQSALLVPTLFSFFAKSTLIDKYDLSNLHEIASGGAPLSKEVGEAVAKRFHLPGIRQGYGLTETTSAILITPEGDDKPGAVGKVVPFFEAKVVDLDTGKTLGVNQRGELCVRGPMIMSGYVNNPEATNALIDKDGWLHSGDIAYWDEDEHFFIVDRLKSLIKYKGYQVAPAELESILLQHPNIFDAGVAGLPDDDAGELPAAVVVLEHGKTMTEKEIVDYVASQVTTAKKFRGGVVFVDEVPKGLTGKLDTRKIREILIKAKKGGKSKL | ~30% | 80% | approximately 40% |  |  |  |  |  |  |  | comparable activity | inhibited much less by chloroform | ≤ 15% | not inhibited as much as wild-type luciferase

— patent publication US7183092B2, “Modified luciferase” (priority 2003, dated 2007)
